Patent US7767659B2, “Synthesis of naturally occurring ecteinascidins and related compounds” (Pharma Mar, S.A., priority 2002, dated 2010)
Like-named read-outs stand apart in the source and are kept apart here.

Tests used:
A-549 = assay: cells; details: Homo sapiens, A549, 48 h
Protocol: (§1) This form of the assay employs 96 well cell culture microplates of 9 mm diameter (Faircloth, 1988; Mosmann, 1983). Most of the cell lines are obtained from American Type Culture Collection (ATCC) derived from different human cancer types.
(§2) Cells are maintained in RPMI 1640 10% FBS, supplemented with 0.1 g/l penicillin and 0.1 g/l streptomycin sulfate and then incubated at 37° C., 5% CO2 and 98% humidity. For the experiments, cells were harvested from subconfluent cultures using trypsin and resuspended in fresh medium before plating.
(§3) Cells are seeded in 96 well microtiter plates, at 5×10^3 cells per well in aliquots of 195 μl medium, and they are allowed to attach to the plate surface by growing in drug free medium for 18 hours. Afterward, samples are added in aliquots of 5 μl in a ranging from 10 to 10^−8 μg/ml, dissolved in DMSO/EtOH/PBS (0.5:0.5:99). After 48 hours exposure, the antitumor effect are measured by the SRB methodology: cells are fixed by adding 50 μl of cold 50% (wt/vol) trichloroacetic acid (TCA) and incubating for 60 minutes at 4° C. Plates are washed with deionized water and dried. One hundred μl of SRB solution (0.4% wt/vol in 1% acetic acid) is added to each microtiter well and incubated for 10 minutes at room temperature. Unbound SRB is removed by washing with 1% acetic acid. Plates are air dried and bound stain is solubilzed with Tris buffer. Optical densities are read on a automated spectrophotometric plate reader at a single wavelength of 490 nm.
(§4) The values for mean +/− SD of data from triplicate wells are calculated. Some parameters for cellular responses can be calculated: GI=growth inhibition, TGI=total growth inhibition (cytostatic effect) and LC=cell killing (cytotoxic effect).

HT-29 = assay: cells; details: Homo sapiens, HT-29, 48 h
Protocol: as §1, §2, §3, §4

LoVo = assay: cells; details: Homo sapiens, LoVo, 48 h; for GI50: read-out: LOVO GI50; for CC50: read-out: LOVO LC50; for IC (TGI): read-out: LOVO TGI
Protocol: as §1, §2, §3, §4

DU-145 = assay: Inhibition of cells growth by colorimetric assay (SRB); details: Homo sapiens, DU-145, 48 h
Protocol: as §1, §2, §3, §4

HeLa-APL = assay: as above; details: Homo sapiens, 48 h; for GI50: read-out: HELA-APL GI50; for CC50: read-out: HELA-APL LC50; for IC (TGI): read-out: HELA-APL TGI
Protocol: as §1, §2, §3, §4

HeLa = assay: as above; details: Homo sapiens, HeLa, 48 h; for GI50: read-out: HELA GI50; for CC50: read-out: HELA LC50; for IC (TGI): read-out: HELA TGI
Protocol: as §1, §2, §3, §4

IGROV-1 = assay: as above; details: Homo sapiens, IGROV-1, 48 h; for GI50: read-out: IGROV GI50; for CC50: read-out: IGROV LC50; for IC (TGI): read-out: IGROV TGI
Protocol: as §1, §2, §3, §4

IGROV-ET = assay: as above; details: Homo sapiens, 48 h
Protocol: as §1, §2, §3, §4

K-562 = assay: as above; details: Homo sapiens, K562, 48 h; for GI50: read-out: K562 GI50; for CC50: read-out: K562 LC50; for IC (TGI): read-out: K562 TGI
Protocol: as §1, §2, §3, §4

LNCaP = assay: as above; details: Homo sapiens, LNCaP, 48 h
Protocol: as §1, §2, §3, §4

LoVo-Dox = assay: as above; details: Homo sapiens, 48 h; for GI50: read-out: LOVO-DOX GI50; for CC50: read-out: LOVO-DOX LC50; for IC (TGI): read-out: LOVO-DOX TGI
Protocol: as §1, §2, §3, §4

PANC-1 = assay: as above; details: Homo sapiens, PANC-1, 48 h; for GI50: read-out: PANC-1 GI50; for CC50: read-out: PANC-1 LC50; for IC (TGI): read-out: PANC-1 TGI
Protocol: as §1, §2, §3, §4

SK-BR-3 = assay: as above; details: Homo sapiens, SK-BR-3, 48 h; for GI50: read-out: SK-BR3 GI50; for CC50: read-out: SK-BR3 LC50; for IC (TGI): read-out: SK-BR3 TGI
Protocol: as §1, §2, §3, §4

SK-MEL-28 = assay: as above; details: Homo sapiens, SK-MEL-28, 48 h
Protocol: as §1, §2, §3, §4

Work on COC1=C(C)C(=O)C2=C(C1=O)[C@@H]1C3[C@@H]4SC[C@]5(NCCc6c5[nH]c5ccccc65)C(=O)OC[C@@H](c5c6c(c(C)c(OC(C)=O)c54)OCO6)N3[C@@H](O)[C@H](C2)N1C (stereo partly drawn) [ET-736-quinone] yielded a GI50 (A-549; read-out: A549 GI50) of 25.6 nM, a CC50 (A-549; read-out: A549 LC50) of 109 nM and an IC (TGI) (A-549; read-out: A549 TGI) of 52.9 nM. The GI50 (HT-29; read-out: HT29 GI50) was 51.2 nM, the CC50 (HT-29; read-out: HT29 LC50) was 13000 nM and the IC (TGI) (HT-29; read-out: HT29 TGI) was 128 nM. The GI50 (LoVo) was 265 nM, the CC50 (LoVo) was 1300 nM and the IC (TGI) (LoVo) was 596 nM. For the same molecule, the GI50 (DU-145; read-out: DU145 GI50) was 45.1 nM, the CC50 (DU-145; read-out: DU145 LC50) was 129 nM and the IC (TGI) (DU-145; read-out: DU145 TGI) was 76.3 nM. The GI50 (HeLa-APL) was 55.5 nM, the CC50 (HeLa-APL) was 111 nM and the IC (TGI) (HeLa-APL) was 78.4 nM. For the same molecule, the GI50 (HeLa) was 3320 nM, the CC50 (HeLa) was 114 nM and the IC (TGI) (HeLa) was 6140 nM. For the same molecule, the GI50 (IGROV-1) was 67.1 nM, the CC50 (IGROV-1) was 735 nM and the IC (TGI) (IGROV-1) was 215 nM. It also gave a GI50 (IGROV-ET; read-out: IGROV-ET GI50) of 510 nM, a CC50 (IGROV-ET; read-out: IGROV-ET LC50) of 1200 nM and an IC (TGI) (IGROV-ET; read-out: IGROV-ET TGI) of 782 nM. For the same molecule, the GI50 (K-562) was 4.96 nM, the CC50 (K-562) was 105 nM and the IC (TGI) (K-562) was 13.7 nM. It also gave a GI50 (LNCaP; read-out: LNCAP GI50) of 24.8 nM, a CC50 (LNCaP; read-out: LNCAP LC50) of 79.9 nM and an IC (TGI) (LNCaP; read-out: LNCAP TGI) of 44.6 nM. The GI50 (LoVo-Dox) was 747 nM, the CC50 (LoVo-Dox) was 13000 nM and the IC (TGI) (LoVo-Dox) was 3280 nM. The GI50 (PANC-1) was 394 nM, the CC50 (PANC-1) was 13000 nM and the IC (TGI) (PANC-1) was 957 nM. It also gave a GI50 (SK-BR-3) of 5.33 nM, a CC50 (SK-BR-3) of 192 nM and an IC (TGI) (SK-BR-3) of 11.3 nM. It also gave a GI50 (SK-MEL-28; read-out: MEL-28 GI50) of 123 nM, a CC50 (SK-MEL-28; read-out: MEL-28 LC50) of 718 nM and an IC (TGI) (SK-MEL-28; read-out: MEL-28 TGI) of 300 nM.

CCC(=O)NC1CS[C@@H]2c3c(OC(C)=O)c(C)c4c(c3[C@H](COC1=O)N1C2[C@@H]2N[C@@H](Cc3cc(C)c(OC)c(O)c32)[C@@H]1C#N)OCO4 (stereo partly drawn) [compound 33] was tested, and the GI50 (A-549; read-out: GI50 A549) was 26.2 nM, the CC50 (A-549; read-out: LC50 A549) was 149 nM and the IC (TGI) (A-549; read-out: TGI A549) was 62.4 nM. It also gave a GI50 (HT-29; read-out: GI50 HT29) of 17.3 nM, a CC50 (HT-29; read-out: LC50 HT29) of 9810 nM and an IC (TGI) (HT-29; read-out: TGI HT29) of 271 nM. It also gave a GI50 (LoVo) of 19.9 nM, a CC50 (LoVo) of 145 nM and an IC (TGI) (LoVo) of 53.6 nM. For the same molecule, the GI50 (DU-145; read-out: GI50 DU145) was 8.02 nM, the CC50 (DU-145; read-out: LC50 DU145) was 4410 nM and the IC (TGI) (DU-145; read-out: TGI DU145) was 15.6 nM. For the same molecule, the GI50 (HeLa-APL) was 5.24 nM, the CC50 (HeLa-APL) was 115 nM and the IC (TGI) (HeLa-APL) was 19.1 nM. For the same molecule, the GI50 (HeLa) was 5.02 nM, the CC50 (HeLa) was 96.9 nM and the IC (TGI) (HeLa) was 16.1 nM. The GI50 (IGROV-1) was 98.5 nM, the CC50 (IGROV-1) was 1580 nM and the IC (TGI) (IGROV-1) was 426 nM. It also gave a GI50 (K-562) of 5.49 nM, a CC50 (K-562) of 2830 nM and an IC (TGI) (K-562) of 159 nM. The GI50 (LNCaP; read-out: GI50 LNCAP) was 2.86 nM, the CC50 (LNCaP; read-out: LC50 LNCAP) was 11.1 nM and the IC (TGI) (LNCaP; read-out: TGI LNCAP) was 5.64 nM. The GI50 (LoVo-Dox) was 367 nM, the CC50 (LoVo-Dox) was 5900 nM and the IC (TGI) (LoVo-Dox) was 940 nM. For the same molecule, the GI50 (PANC-1) was 19.9 nM, the CC50 (PANC-1) was 4510 nM and the IC (TGI) (PANC-1) was 122 nM. The GI50 (SK-BR-3) was 4.83 nM, the CC50 (SK-BR-3) was 385 nM and the IC (TGI) (SK-BR-3) was 13.9 nM. For the same molecule, the GI50 (SK-MEL-28; read-out: GI50 MEL-28) was 12.8 nM, the CC50 (SK-MEL-28; read-out: LC50 MEL-28) was 97.9 nM and the IC (TGI) (SK-MEL-28; read-out: TGI MEL-28) was 36.7 nM.
